From patent US5210193A, “Piperazine derivatives” (American Cyanamid Company, priority 1990, dated 1993)

Tests used:
Escherichia coli 311 = assay: in vivo antibacterial activity of Example 131, survival of infected mice (Table IV); design: species or system Charles River CD-1 female mice
Protocol: (§1) The in vivo antibacterial activity of 1-cyclopropyl-6-fluoro-7-[3-(fluoromethyl)-1-piperazinyl]-1,4-dihydro-4-oxo-3-quinolinecarboxylic acid (Example 131) was established in the following test.
(§2) Charles River CD-1 female mice, weighing 20±2 g were infected with either Staphylococcus aureus Smith or Escherichia coli 311. A single oral or subcutaneous dose of 1-cyclopropyl-6-fluoro-7-[3-(fluoromethyl)-1-piperazinyl]-1,4-dihydro-4-oxo-3-quinolinecarboxylic acid was administered 1/2 hour after infection. […]

[1] = system: Staphylococcus aureus Smith; assay: as above; design: species or system Charles River CD-1 female mice
Protocol: as §1, §2

[2] = subcutaneous, 0.5 mg/kg single dose
[3] = subcutaneous, 1 mg/kg single dose
[4] = subcutaneous, 2 mg/kg single dose

`O=C(O)c1cn(C2CC2)c2cc(N3CCNC(CF)C3)c(F)cc2c1=O` (stereo not drawn) [Example 131, 1-Cyclopropyl-6-fluoro-7-[3-(fluoromethyl)-1-piperazinyl]-1,4-dihydro-4-oxo-3-quinolinecarboxylic acid] was tested, and the “Survival Ratio 7 Days After Infection” value (Escherichia coli 311; oral, 0.12 mg/kg single dose) was 0/10, the “Survival Ratio 7 Days After Infection” value (Escherichia coli 311; oral, 0.25 mg/kg single dose) was 1/10 and the “Survival Ratio 7 Days After Infection” value (Escherichia coli 311; oral, 0.5 mg/kg single dose) was 3/10. The “Survival Ratio 7 Days After Infection” value (Escherichia coli 311; oral, 1 mg/kg single dose) was 7/10, the “Survival Ratio 7 Days After Infection” value (Escherichia coli 311; oral, 2 mg/kg single dose) was 10/10 and the “Survival Ratio 7 Days After Infection” value (Escherichia coli 311; subcutaneous, 0.12 mg/kg single dose) was 0/10. For the same compound, the “Survival Ratio 7 Days After Infection” value (Escherichia coli 311; subcutaneous, 0.25 mg/kg single dose) was 2/10, the “Survival Ratio 7 Days After Infection” value (Escherichia coli 311; [2]) was 7/10 and the “Survival Ratio 7 Days After Infection” value (Escherichia coli 311; [3]) was 10/10. The “Survival Ratio 7 Days After Infection” value (Escherichia coli 311; [4]) was 10/10, the “Survival Ratio 7 Days After Infection” value ([1]; oral, 1 mg/kg single dose) was 0/15 and the “Survival Ratio 7 Days After Infection” value ([1]; oral, 2 mg/kg single dose) was 2/15. For the same compound, the “Survival Ratio 7 Days After Infection” value ([1]; oral, 4 mg/kg single dose) was 10/15, the “Survival Ratio 7 Days After Infection” value ([1]; oral, 8 mg/kg single dose) was 15/15 and the “Survival Ratio 7 Days After Infection” value [1, 2] was 0/15. The “Survival Ratio 7 Days After Infection” value [1, 3] was 2/15, the “Survival Ratio 7 Days After Infection” value [1, 4] was 14/15 and the “Survival Ratio 7 Days After Infection” value ([1]; subcutaneous, 4 mg/kg single dose) was 15/15.
